The text below walks through data of publication PMC9668914, “Understanding VPAC receptor family peptide binding and selectivity” (Nature Communications, 2022).

Where two headings read alike, the source gives them in different places.

Test [1] addresses T1, Nluc-PAC1R (Homo sapiens, UniProt P41586).
T1 construct: A construct containing N-terminal NLuc immediately after the native signal peptide of PAC1R was also generated in pcDNA3.1; expressed in transfected cells; host or cells: COS-7 (transient, PEI; whole cells at 4 °C)
T1 sequence (P41586 21-468): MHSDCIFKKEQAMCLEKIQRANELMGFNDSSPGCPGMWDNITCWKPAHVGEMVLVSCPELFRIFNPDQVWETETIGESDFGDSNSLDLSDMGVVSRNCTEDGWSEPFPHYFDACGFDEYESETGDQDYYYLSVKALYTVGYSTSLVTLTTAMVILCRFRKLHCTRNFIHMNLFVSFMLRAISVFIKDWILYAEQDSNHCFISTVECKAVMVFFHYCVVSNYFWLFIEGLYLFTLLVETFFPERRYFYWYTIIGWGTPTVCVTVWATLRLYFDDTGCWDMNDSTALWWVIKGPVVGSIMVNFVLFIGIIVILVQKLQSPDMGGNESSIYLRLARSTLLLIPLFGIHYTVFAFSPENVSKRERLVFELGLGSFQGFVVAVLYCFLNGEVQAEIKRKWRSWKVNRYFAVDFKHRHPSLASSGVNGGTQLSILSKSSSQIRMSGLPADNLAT
Kind of test: NanoBRET competition binding, AF568-PACAP27 probe (Fig. 5c). Conditions: COS-7, 30 nM AF568-PACAP27, 4 °C, read-out: pIC50, PAC1R competition binding (converted). An excerpt: (§1) An HA signal peptide was inserted in place of the native signal peptide of the receptors and a FLAG epitope was incorporated into the receptor N-terminus immediately after the signal peptide. A His tag was fused to C-terminus of the receptor. 3C protease cleavage sites were inserted between both the FLAG and His tags and the receptor. […] The following PAC1R and VPAC1R mutants were also generated using Quikchange mutagenesis: PAC1R C25A, PAC1R C219A, PAC1R C25A/C219A, VPAC1R C37A and VPAC1R C208A. For all PAC1R constructs, we used the PAC1R null (PAC1n) splice variant. A construct containing N-terminal NLuc immediately after the native signal peptide of PAC1R was also generated in pcDNA3.1.
Therefore, the lysine residue at position 21 was replaced with a cysteine residue (^21C) for the facile conjugation of fluorophore via thiol-maleimide click reaction. The resulting target peptide ^21C-PACAP27 (Mutant fragment) with amidated C-terminus was synthesized by standard Fmoc-solid phase peptide synthesis method[43] and purified by Reversed-phase high-performance liquid chromatography (RP-HPLC). […] of Alexa Fluor™ 568F was purchased from ThermoFisher Scientific (Catalog number: A20003). The thiol-maleimide conjugation reaction was carried out by our published protocol. […] The molecular weight of the probe was confirmed by Matrix-Assisted Laser Desorption/Ionization Time-of-Flight Mass Spectrometry (MALDI-TOF MS).
COS-7 cells were plated in 10 cm dishes at approximately 1 million cells/dish. Cells were transfected 24 h later, using 3 μg of Nluc-PAC1R DNA using the method described above and then seeded at a density of 15,000 cells per well in white-bottom 96-well culturplates 24 h prior to assay. On the day of the assay, cell culture media was replaced with BRET buffer (0.1% ovalbumin, 10 mM HEPES, 1x HBSS, pH 7.45) and incubated at 4 °C for two hours. […] After 1.5 h, furimazine (10 μM final concentration) was added to each well and the plate incubated for a further 30 min in the dark at 4 °C before reading. Filtered light emissions were measured at 460±40 nm (donor channel) and at 610-LP nm (long pass) (acceptor channel) using a PHERAstar plate reader (BMG Labtech). The raw NanoBRET ratio was calculated by dividing the luminescence from the acceptor channel by the donor channel. Data were expressed as % AF568-PACAP27 BRET signal in the absence of competing ligand.
(§2) The pharmacological data in figures and tables are reported as mean + standard error of the mean (SEM) with the number of biological replicates indicated in the figure and table legends where “n” represents the number of biological replicates performed. Concentration-response data were analyzed in GraphPad Prism version 9.4.0 using a three-parameter logistic curve to derive pEC50 values for the cyclic AMP accumulation. Competition binding data were analyzed in GraphPad Prism using the one site—Fit log IC50 model to derive pIC50 values. For the cysteine mutagenesis data, comparisons of multiple different groups were performed using one-way analysis of variance (ANOVA), followed by Dunnett’s post-hoc test with the control group being the WT receptor, with significance accepted at p < 0.05. For the chimeric peptide data, comparisons of multiple different groups were performed using one-way ANOVA, followed by Tukey’s post-hoc test, with significance accepted at p < 0.05.

The next test concerns the target T2, PAC1R (Homo sapiens, UniProt P41586).
T2 construct: An HA signal peptide was inserted in place of the native signal peptide of the receptors; HA signal peptide (replaces the native signal peptide) (N); 3C protease cleavage sites (between FLAG and receptor, and between receptor and His) (internal); expressed in transfected cells; host or cells: COS-7 (transient, PEI)
T2 sequence (P41586 21-468): T1 sequence (P41586 21-468)
The experiment in a line: cAMP accumulation, chimeric peptides (Fig. 5b). Format: cell-based. The conditions noted are these: COS-7, three-parameter logistic, read-out: pEC50, PAC1R cAMP (converted).
Description: as §1
COS-7 cells were used for the chimeric peptide and cysteine mutagenesis pharmacological assays due to their lack of endogenous expression of PAC1R and receptor activity-modifying proteins, reported to potentially heterodimerize with PAC1R and VPAC1R[42]. Cells were cultured in Dulbecco’s Modified Eagle’s Medium (DMEM) (Invitrogen) supplemented with 5% v/v heat-inactivated FBS at 37 °C and […] /5% CO2 in a humidified incubator. COS-7 cells were plated in 10 cm dishes at approximately 1 million cells/dish. Cells were transfected 24 h later, with 5 µg of either WT or mutant PAC1R or VPAC1R receptor DNA. DNA and PEI (in a 1:6 ratio) were each diluted in 150 mM NaCl, and then combined and incubated for 10 min, before the mixture was added to the 10 cm dish. The next day, cells were harvested from the 10 cm dishes using Trypsin-Versene (PBS + 0.5 mM EDTA, pH 7.4), and were seeded at a density of 15,000 cells/well into clear 96-well culture plates and incubated overnight at 37 °C in 5% CO2 for cAMP accumulation assay the next day.
The reaction was terminated after 30 min by aspiration of the buffer and addition of 50 μl of ice-cold ethanol. Upon evaporation of ethanol, 75 μl of lysis buffer (5 mM HEPES, 0.1% (w/v) OVA, 0.3% (w/v) Tween20, pH 7.4) was added to the cells. cAMP detection was performed using a LANCE cAMP Detection Kit (PerkinElmer) for the construct validation and cysteine mutagenesis pharmacological assays and cAMP Gs HiRange kit (Cisbio) for the chimeric peptide pharmacological assays. The plates were read using an EnVision plate reader with excitation at 320 nm and emission at 615 nm[45].
as §2

Test [2] has as its target Nluc-PAC1R (UniProt P41586). Kind of test: FRET or BRET; NanoBRET whole cell competition binding; COS-7 cells with Nluc-PAC1R, 30 nM AF568-PACAP27 and increasing competing peptide added together, 4 °C, BRET buffer (0.1% ovalbumin, 10 mM HEPES, 1x HBSS, pH 7.45); one site fit of log IC50. On the technique in general: Bioluminescence resonance energy transfer reports proximity on the nanometre scale.

In another test the test system is GLP-1R. The conditions noted are these: cited from earlier work. An excerpt: In the equivalent position as R ...
A further test deals with M299^PAC1R/D301^PAC1R. The conditions noted are these: cited from earlier work. An excerpt:
Nonetheless, the secondary engagement of the peptide N-terminus with ECL2/ECL3 appeared to coordinate interactions that preceded the movement of the far N-terminal residues deeper into the binding pocket. Unique residues in ECL2 that differ between the V ...

For test [3], the system named is PAC1R WT, C25A, C219A, C25A/C219A. Kind of test: cAMP accumulation, cysteine mutagenesis (Fig. 6e, Supplementary Fig. 13d-f). In kind it is cell-based. The conditions noted are these: COS-7, mean of n = 3. Here is the method:
(§3) Maps are shown in transparent and model backbones are shown in ribbon format. The relevant cysteines are shown as stick models, with the putative disulfide bond present. […] The data for panels d and e are the mean ± SEM, n = 3 independent experiments. Differences in potency between WT and mutant receptors was assessed using a one-way ANOVA and Dunnett’s post-test. […] Interactions are listed by percentage of occupancy of frames, with the background colouring representing maximum occupancy % (red) and minimum occupancy % (white). Receptor residue background colouring is according to their residue numbering (TM transmembrane helix, ECL3 extracellular loop 3). Table is based on data presented in Supplementary Table 4. Source data for panels d and e are provided in the Source Data file.
as §1
(§4) COS-7 cells were used for the chimeric peptide and cysteine mutagenesis pharmacological assays due to their lack of endogenous expression of PAC1R and receptor activity-modifying proteins, reported to potentially heterodimerize with PAC1R and VPAC1R[42]. […] COS-7 cells were plated in 10 cm dishes at approximately 1 million cells/dish. Cells were transfected 24 h later, with 5 µg of either WT or mutant PAC1R or VPAC1R receptor DNA. […]
(§5) The reaction was terminated after 30 min by aspiration of the buffer and addition of 50 μl of ice-cold ethanol. […] The plates were read using an EnVision plate reader with excitation at 320 nm and emission at 615 nm[45].
(§6) The pharmacological data in figures and tables are reported as mean + standard error of the mean (SEM) with the number of biological replicates indicated in the figure and table legends where “n” represents the number of biological replicates performed. Concentration-response data were analyzed in GraphPad Prism version 9.4.0 using a three-parameter logistic curve to derive pEC50 values for the cyclic AMP accumulation. Competition binding data were analyzed in GraphPad Prism using the one site—Fit log IC50 model to derive pIC50 values. […]

In the next test the test system is VPAC1R WT, C37A, C208A. The experiment in a line: cAMP accumulation, cysteine mutagenesis (Fig. 6d, Supplementary Fig. 13a-c). In kind it is cell-based. Conditions: for Difference in cAMP potency (pEC50) between WT and mutant VPAC1R: COS-7, mean of n = 3. Here is the method: as §3, §1, §4, §5, §6
A general note: Cyclic AMP is a second messenger, typically raised through Gs and lowered through Gi signalling.

Consider `CC[C@H](C)[C@H](NC(=O)[C@H](CO)NC(=O)[C@H](CC(N)=O)NC(=O)[C@H](CC(C)C)NC(=O)[C@H](Cc1ccc(O)cc1)NC(=O)[C@H](CCCCN)NC(=O)[C@H](CCCCN)NC(=O)[C@@H](NC(=O)[C@H](C)NC(=O)[C@H](CCSC)NC(=O)[C@H](CCC(N)=O)NC(=O)[C@H](CCCCN)NC(=O)[C@H](CCCN=C(N)N)NC(=O)[C@H](CC(C)C)NC(=O)[C@H](CCCN=C(N)N)NC(=O)[C@@H](NC(=O)[C@H](Cc1ccc(O)cc1)NC(=O)[C@H](CC(N)=O)NC(=O)[C@H](CC(=O)O)NC(=O)[C@@H](NC(=O)[C@H](Cc1ccccc1)NC(=O)[C@@H](NC(=O)[C@H](C)NC(=O)[C@H](CC(=O)O)NC(=O)[C@H](CO)NC(=O)[C@@H](N)Cc1c[nH]cn1)C(C)C)[C@@H](C)O)[C@@H](C)O)C(C)C)C(=O)N[C@@H](CC(C)C)C(=O)N[C@@H](CC(N)=O)C(N)=O` [VIP, vasoactive intestinal peptide, reference compound], for which the IC50 on Nluc-PAC1R [1] (replicate n=1) is 4500 nM; on Nluc-PAC1R [1] (replicate n=2), 8090 nM; at Nluc-PAC1R [1] (replicate n=3) it was 12700 nM; at Nluc-PAC1R [1] (replicate n=4), 15700 nM; at Nluc-PAC1R [1] (replicate n=5) it was 7140 nM. Moreover, the EC50 was 38.5 nM on PAC1R (replicate n=1); 30.9 nM on PAC1R (replicate n=2); 43.3 nM at PAC1R (replicate n=3); 76.4 nM on PAC1R (replicate n=4); 104 nM at PAC1R (replicate n=5).
In the test with Nluc-PAC1R [2], Ala4 PACAP27 (peptide) registered a fold reduction in pIC50 relative to PACAP27 of 30 fold.
Consider GLP-1: glucagon-like peptide 1, for which, in the test on GLP-1R, the “GLP-1 affinity with R380 of GLP-1R switched to the VPAC1R residue” value is “reduced GLP-1 affinity” and the “GLP-1 potency for cAMP production at GLP-1R D372A, E373A” value was “reduced GLP-1 potency for cAMP production”.
Regarding “PACAP38: PACAP38, a 38 amino acid peptide”, in the test with M299^PAC1R/D301^PAC1R, the “PACAP38-mediated cAMP production with alanine mutation of M299/D301 PAC1R” value is listed as “reduced PACAP38-mediated cAMP production”. In addition, the “Difference in cAMP potency (pEC50) between WT and mutant PAC1R” value in test [3] (C25A C219A) is given as -0.4376; in test [3] (C25A), -0.9347; in test [3] (C219A), -0.4471; in test [3] (WT), 0. Further, the “Difference in cAMP potency (pEC50) between WT and mutant VPAC1R” value in the test on VPAC1R WT, C37A, C208A (C37A) was -0.5843; in the test with VPAC1R WT, C37A, C208A (C208A), -0.568; in the test with VPAC1R WT, C37A, C208A (WT), 0. In the test on VPAC1R WT, C37A, C208A (VPAC1R and PAC1R single mutants (Fig. 6d, e), only significant for PACAP27 at C37A VPAC1R or C25A PAC1R), the “reduction in cAMP potency at single cysteine mutants of either receptor, compared with VIP” value was “much smaller reduction in potency”.
